Measurements: US4590275A, “Benzoheterazolo[3,2-a]quinolinium salts” (Commonwealth of Puerto Rico, priority 1983, dated 1986)
Read-outs that look alike come from different tables or passages of the source.

How the values were obtained:
[1] = system: DNA synthesis; settings: probably by interacting with A:T base pairs; cited from earlier work
[2] = system: P388 murine leukemia; settings: cited from earlier work
[3] = system: L1210 murine leukemia; settings: cited from earlier work
[4] = system: KB cells; assay: Cytotoxic activity in vitro, KB cells; assay type: cell-based; settings: for IC50: Homo sapiens, KB cells, average of at least three experiments, read-out: ED50 KB
Protocol: (§1) It appears that structural variations such as replacement of sulfur for oxygen or selenium as well as changes in the electronic nature of the substituents are critical factors in eliciting the inhibitory activity. Since in general satisfactory cytotoxic activity "in vitro" corresponds to good antitumor activity in vivo, the antitumor activity of compound Ib was assessed in mice bearing Ehrlich ascites tumor. A range of doses from 400 mg/kg to 90 mg/kg were tested, each given in a one dose basis, 24 h after tumor implantation. […] Compound Ib was also tested against P388 leukemia in mice.
(§2) HeLa-229 and KB cells were used for in vitro tissue culture cytotoxicity experiments. Cells were grown in monolayer culture in Difco TC Minimal Medium Eagle and supplemented with 10% foetal calf serum (Flow). Subculturing was performed every 6-7 days. Ehrlich ascites tumor was maintained in serial passages at two week intervals in Albino Swiss mice by intraperitoneal implant.
(§3) The method was essentially as described in Cancer Chemotherapy Rep. Part 3, 3, 2 (1972); NCl Monograph 45, p. 150. Drugs were always suspended in sterile 0.5% carboxymethyl cellulose. As a positive control 1 μM 6-mercaptopurine was always included.

[5] = system: Herpes simplex virus (HSV-1) infected KB cells; assay: Protein synthesis in HSV-1 infected and mock-infected KB cells; assay type: cell-based; settings: for inhibition of translation (protein synthesis): infected vs mock-infected KB cells
Protocol: In addition, herpes simplex virus (HSV-1) infected KB cells and KB mock-infected cells were assayed for protein synthesis in the presence of Ib at different concentrations.
Screening of antibiotic action on protein synthesis in virus infected cells.
Herpes simplex virus (HSV-1) infected KB cells and KB mock-infected cells were assayed for protein synthesis in the presence of nitrobenzothiazolo quinolium perchlorate at different concentrations. After infection or mock-infection nitrobenzothiazolo quinolium perchlorate was added at the concentration of 100, 50, 25, 5 and 1.5 μg/ml and incubated for 48 hours.
After the incubation time, protein synthesis was measured by addition of 0.1 μCi^35 S methionine ([…]; 5.4 mCl/ml) and incubated for 1 hour. After incubation the medium was removed, the reaction stopped and the radioactivity estimated in an Intertechnique liquid scintillation spectrometer.
The value 100% of control represents 72,484 cpm (mock-infected KB cells).

[6] = system: HeLa cells; assay: Cytotoxic activity in vitro, HeLa cells; assay type: cell-based
Protocol: as §1, §2, §3

[7] = system: Ehrlich ascites tumor; assay: Antitumor activity against Ehrlich ascites tumor in mice; assay type: in vivo, female Albino Swiss mice; settings: for death of mice: one dose; for T/C: Day 12
Protocol: as §1, §2
(§4) The mice used through these experiments were female Albino Swiss mice.
(§5) Each group consisted of five to six weight matched animals. To begin the antitumor experiment 1×10^6 viable cells (trypan blue exclusion test) were injected ip. Test compounds were suspended in 0.9% (w/v) NaCl solution containing 0.10% (v/v) Tween 80 at the higher concentration. Lower doses were obtained by serial dilutions with 0.9% NaCl and injected ip in a volume of 0.5 ml in a single dose 24 h after implantation of the tumor. Animal body weights were recorded daily during the next 30 days and the survival was followed for the next 60 days. The P388 leukemia assay was performed according to standard protocol, Cancer Chemotherapy Rep.; Part 3, 3, 2 (1972); NCl Monograph 45, p. 150.
(§6) ^a Average of three tests except when noted.
(§7) ^b and ^c Assay performed according to procols of NCl.
(§8) ^d Treatment given ip on Day 1.
^f Toxicity = LTS number of toxic deaths/number of treated mice.
^g LTS = long term survivors (60 days)/number of treated mice.

[8] = system: P388 leukemia; assay: Antitumor activity against P388 leukemia in mice; assay type: in vivo
Protocol: as §1, §4, §5, §6, §7
5Fluorouracil was used as control (200 mg/kg/ing).
as §8
^h Median survival time of treated mice/median survival of control
× 100. Values of T/C 120 denote activity.

[9] = Ehrlich ascites, 90 mg/kg ip on Day 1, two test results
[10] = Ehrlich ascites, 100 mg/kg ip on Day 1, two test results
[11] = Ehrlich ascites, 150 mg/kg ip on Day 1
[12] = Ehrlich ascites, 200 mg/kg ip on Day 1
[13] = Ehrlich ascites, 250 mg/kg ip on Day 1
[14] = Ehrlich ascites, 400 mg/kg ip on Day 1

COc1cc2c[n+](C)c3c4cc5c(cc4ccc3c2cc1OC)OCO5 [nitidine]
inhibition of DNA synthesis [1]: inhibit DNA synthesis | antitumor activity [2]: potent antitumor activity | antitumor activity [3]: potent antitumor activity

O=[N+]([O-])c1ccc2c(ccc3[se]c4ccccc4[n+]32)c1.[O-][Cl+3]([O-])([O-])[O-] [Il, 3-Nitrobenzoselenazolo(3,2-a)quinolinium Perchlorate]
IC50 [4]: 100 mg/L

O=[N+]([O-])c1ccc2c(ccc3sc4ccccc4[n+]32)c1.[O-][Cl+3]([O-])([O-])[O-] [Ib, 3-Nitrobenzothiazolo(3,2-a)quinolinium Perchlorate]
virus yield [5]: drastic reduction on virus yield | virus yield ([5]; 5×10^-4 M, 48 hours): drastic reduction on virus yield | inhibition of translation (protein synthesis) ([5]; 5×10^-4 M, 48 hours): inhibited preferentially translation on infected cells | inhibition of translation (protein synthesis) [5]: inhibited preferentially translation on infected cells | cytotoxicity, ranking among compounds I ([6]; HeLa screen): highest cytotoxicity | IC50 ([6]; Homo sapiens, HeLa cells, average of at least three experiments, read-out: ED50 HeLa): 0.9 mg/L | death of mice ([7]; 300 mg/kg): died within 24 h of injection | death of mice ([7]; 400 mg/kg): died within 24 h of injection | T/C [7, 9]: 57.3% | LTS, long term survivors (60 days)/number of treated mice [7, 9]: 5/10 | Survival [7, 9]: 3/5 | T/C [7, 10]: 35.8% | LTS, long term survivors (60 days)/number of treated mice [7, 10]: 12/12 | Survival [7, 10]: 6/6 | LTS, long term survivors (60 days)/number of treated mice [7, 11]: 15/18 | Survival [7, 11]: 6/6 | T/C [7, 11]: -0.4% | LTS, long term survivors (60 days)/number of treated mice [7, 12]: 18/18 | Survival [7, 12]: 6/6 | T/C [7, 12]: -6.9% | LTS, long term survivors (60 days)/number of treated mice [7, 13]: 15/18 | Survival [7, 13]: 6/6 | T/C [7, 13]: -2.5% | Survival [7, 14]: 0/6 | Toxicity (toxic deaths/number of treated mice) [7, 14]: 6/6 | T/C value ([7]; Ehrlich ascites, most effective dose 200 mg/kg, one dose 24 h after tumor implantation): -6.2 | Survival ([8]; 200 mg/kg ip on Day 1): 6/6 | T/C (median survival time of treated mice/median survival of control × 100) ([8]; 200 mg/kg ip on Day 1, values of T/C 120 denote activity): 218 | Survival ([8]; 400 mg/kg ip on Day 1): 0/6 | Toxicity ([8]; 400 mg/kg ip on Day 1): 6/6 | IC50 [4]: 0.61 mg/L | cytotoxicity, ranking among compounds I ([4]; KB screen): highest cytotoxicity

COc1cc2cc3c4cc(OC)c(OC)cc4cc[n+]3c(C)c2cc1OC [Coralyne]
antitumor activity [2]: exhibits antitumor activity | antitumor activity [3]: exhibits antitumor activity

COc1cc2c(ccc3c4cc(OC)c(OC)cc4c[n+](C)c23)cc1O [fagaronine]
inhibition of DNA synthesis [1]: inhibit DNA synthesis | antitumor activity [2]: potent antitumor activity | antitumor activity [3]: potent antitumor activity
